According to ChEMBL document CHEMBL1641543, “Synthesis and topoisomerase II inhibitory and cytotoxic activity of oxiranylmethoxy- and thiiranylmethoxy-chalcone derivatives” (Bioorg Med Chem Lett, 2011):

Experiments:
[1] = test system: MCF7; experiment: Cytotoxicity against human MCF7 cells by MTT assay; format: functional, cell-based
[2] = test system: K562; experiment: Cytotoxicity against human K562 cells by MTT assay; format: functional, cell-based
[3] = test system: DU-145; experiment: Cytotoxicity against human DU145 cells by MTT assay; format: functional, cell-based
[4] = test system: HCT-15; experiment: Cytotoxicity against human HCT15 cells by MTT assay; format: functional, cell-based
[5] = molecular target: T1, DNA topoisomerase 1 (Homo sapiens) (UniProt P11387); experiment: Inhibition of human topoisomerase 1-mediated relaxation of supercoiled pBR322 at 100 uM by agarose gel electrophoresis
T1 sequence (whole entry): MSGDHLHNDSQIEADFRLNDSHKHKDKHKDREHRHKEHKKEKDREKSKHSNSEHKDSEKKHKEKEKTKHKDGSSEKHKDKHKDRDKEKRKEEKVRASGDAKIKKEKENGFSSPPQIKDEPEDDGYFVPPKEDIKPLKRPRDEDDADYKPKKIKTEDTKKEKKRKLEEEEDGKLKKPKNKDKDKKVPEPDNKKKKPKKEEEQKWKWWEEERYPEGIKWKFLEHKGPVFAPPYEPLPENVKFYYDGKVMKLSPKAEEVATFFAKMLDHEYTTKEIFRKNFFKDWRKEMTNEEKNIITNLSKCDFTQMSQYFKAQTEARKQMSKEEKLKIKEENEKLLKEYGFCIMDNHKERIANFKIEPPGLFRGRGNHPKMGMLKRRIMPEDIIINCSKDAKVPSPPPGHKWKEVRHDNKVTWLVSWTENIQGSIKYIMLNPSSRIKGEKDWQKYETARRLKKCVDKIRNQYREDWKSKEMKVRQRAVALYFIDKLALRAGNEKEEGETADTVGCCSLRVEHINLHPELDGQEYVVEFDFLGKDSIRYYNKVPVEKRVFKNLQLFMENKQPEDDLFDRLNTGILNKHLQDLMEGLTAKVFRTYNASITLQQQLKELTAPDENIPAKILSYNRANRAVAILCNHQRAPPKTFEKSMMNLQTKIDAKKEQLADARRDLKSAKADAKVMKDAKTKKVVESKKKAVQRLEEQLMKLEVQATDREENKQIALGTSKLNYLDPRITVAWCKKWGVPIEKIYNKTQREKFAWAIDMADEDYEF

[6] = molecular target: DNA topoisomerase 2-alpha (Homo sapiens) (UniProt P11388); experiment: Inhibition of human topoisomerase 2-mediated relaxation of supercoiled pBR322 at 100 uM by agarose gel electrophoresis
[7] = molecular target: DNA topoisomerase 2-alpha (Homo sapiens) (UniProt P11388); experiment: Inhibition of human topoisomerase 2-mediated relaxation of supercoiled pBR322 at 20 uM by agarose gel electrophoresis

Sequence of DNA topoisomerase 2-alpha (Homo sapiens) (P11388 whole entry): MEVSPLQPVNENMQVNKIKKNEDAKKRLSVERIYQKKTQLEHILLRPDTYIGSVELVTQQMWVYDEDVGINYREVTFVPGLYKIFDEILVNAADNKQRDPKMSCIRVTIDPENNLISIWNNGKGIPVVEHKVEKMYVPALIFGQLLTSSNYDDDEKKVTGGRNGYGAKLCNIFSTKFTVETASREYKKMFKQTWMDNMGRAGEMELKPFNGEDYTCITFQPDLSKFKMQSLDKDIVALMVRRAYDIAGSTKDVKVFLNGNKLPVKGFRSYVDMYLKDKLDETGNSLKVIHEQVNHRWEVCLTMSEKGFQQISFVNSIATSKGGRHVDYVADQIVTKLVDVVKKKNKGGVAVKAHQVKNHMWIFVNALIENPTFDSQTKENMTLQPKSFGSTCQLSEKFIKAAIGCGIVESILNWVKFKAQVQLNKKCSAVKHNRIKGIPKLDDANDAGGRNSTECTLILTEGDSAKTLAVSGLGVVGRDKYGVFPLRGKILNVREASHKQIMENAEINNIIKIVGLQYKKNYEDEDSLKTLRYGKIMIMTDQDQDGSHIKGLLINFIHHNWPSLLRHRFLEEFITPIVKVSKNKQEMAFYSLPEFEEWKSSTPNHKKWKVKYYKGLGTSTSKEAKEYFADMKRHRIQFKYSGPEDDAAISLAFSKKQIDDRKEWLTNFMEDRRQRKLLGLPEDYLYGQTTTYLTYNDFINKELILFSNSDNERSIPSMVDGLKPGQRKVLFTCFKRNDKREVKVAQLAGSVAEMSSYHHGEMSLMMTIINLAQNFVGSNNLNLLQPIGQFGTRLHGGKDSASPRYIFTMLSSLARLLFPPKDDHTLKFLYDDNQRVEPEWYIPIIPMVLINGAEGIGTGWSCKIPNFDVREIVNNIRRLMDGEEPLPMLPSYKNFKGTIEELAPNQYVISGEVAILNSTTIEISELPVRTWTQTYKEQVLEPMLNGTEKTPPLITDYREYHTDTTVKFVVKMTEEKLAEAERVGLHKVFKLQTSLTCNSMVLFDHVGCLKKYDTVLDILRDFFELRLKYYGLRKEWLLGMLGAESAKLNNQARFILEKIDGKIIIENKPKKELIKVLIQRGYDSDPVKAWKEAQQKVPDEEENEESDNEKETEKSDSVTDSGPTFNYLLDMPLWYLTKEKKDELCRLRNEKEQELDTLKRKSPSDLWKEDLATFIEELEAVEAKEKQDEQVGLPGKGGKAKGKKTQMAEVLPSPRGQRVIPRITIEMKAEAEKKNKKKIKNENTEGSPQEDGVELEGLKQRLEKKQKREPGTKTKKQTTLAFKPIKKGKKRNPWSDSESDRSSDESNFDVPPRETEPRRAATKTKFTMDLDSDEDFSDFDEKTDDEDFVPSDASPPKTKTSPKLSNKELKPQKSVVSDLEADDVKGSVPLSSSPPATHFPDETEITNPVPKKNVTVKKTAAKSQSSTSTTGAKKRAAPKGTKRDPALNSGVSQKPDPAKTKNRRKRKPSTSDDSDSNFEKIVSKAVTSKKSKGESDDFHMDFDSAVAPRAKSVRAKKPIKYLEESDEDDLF

inhibition [5] [%] | inhibition [6] [%] | inhibition [7] [%] | Compound | IC50 [1] [µM] | IC50 [2] [µM] | IC50 [3] [µM] | IC50 [4] [µM]
 |  |  | COc1cccc2c1C(=O)c1c(O)c3c(c(O)c1C2=O)C[C@@](O)(C(=O)CO)C[C@@H]3O[C@H]1C[C@H](N)[C@H](O)[C@H](C)O1 [DOXORUBICIN] |  | 1.33 | 1.75 | 1.25
 |  |  | CC[C@@]1(O)C(=O)OCc2c1cc1n(c2=O)Cc2cc3ccccc3nc2-1 [CAMPTOTHECIN] | 2.43 | 0.59 | 0.61 | 0.8
0 | 34.9 | 16.3 | COc1ccc(/C=C/C(=O)c2ccc(OCC(O)CCl)cc2)cc1 (stereo not drawn) | 18.4 | 16.2 | > 50 | 20.5
0 | 22 | 15.2 | COc1ccc(C(=O)/C=C/c2ccc(OCC3CO3)cc2)cc1 (stereo not drawn) | 10.9 | 33.5 | 36.9 | 30.4
0 | 30.1 | 14 | COc1ccc(C(=O)/C=C/c2ccc(OCC(O)CCl)cc2)cc1 (stereo not drawn) | 29.2 | 29.1 | > 50 | 20.6
 | 61.9 | 38 | COc1cc([C@@H]2c3cc4c(cc3[C@@H](O[C@@H]3O[C@@H]5CO[C@@H](C)O[C@H]5[C@H](O)[C@H]3O)[C@H]3COC(=O)[C@H]23)OCO4)cc(OC)c1O [ETOPOSIDE] | 1.98 | 1.21 | 1.44 | 2.03
0 | 28.8 | 17.6 | COc1ccc(/C=C/C(=O)c2ccc(OCC3CO3)cc2)cc1 (stereo not drawn) | 11.6 | 27.9 | 43.3 | 27.1
0 | 28.5 | 14 | COc1cc(OCC2CO2)ccc1/C=C/C(=O)c1ccc(OCC2CO2)cc1 (stereo not drawn) | 3.64 | 13.7 | > 50 | 4.82
0 | 33.5 | 19.3 | O=C(/C=C/c1ccc(OCC2CO2)cc1)c1ccc(OCC2CO2)cc1 (stereo not drawn) | 3.87 | 7.27 | > 50 | 18.5

Compound | inhibition [5] [%] | inhibition [6] [%] | inhibition [7] [%] | IC50 [1] [µM] | IC50 [2] [µM] | IC50 [3] [µM] | IC50 [4] [µM]
COc1ccc(/C=C/C(=O)c2ccc(OCC3CS3)cc2)cc1 (stereo not drawn) | 0 | 31.6 | 14.8 | 23.6 | > 50 | 19.4 | 10.1
O=C(/C=C/c1ccc(OCC2CS2)cc1)c1ccc(OCC2CS2)cc1 (stereo not drawn) | 0 | 34.6 | 18 | 21.7 | 13.4 | > 50 | 12.2
COc1ccc(/C=C/C(=O)c2ccc(OCC3CS3)cc2OCC2CS2)cc1 (stereo not drawn) | 0 | 61 | 20.8 | 0.49 | 7.6 | 1.07 | 0.23
COc1ccc(C(=O)/C=C/c2ccc(OCC3CS3)cc2)cc1 (stereo not drawn) | 0 | 31.6 | 15.5 | 11.5 | 32.5 | > 50 | 28.4
